Results on eight compounds are retold here after patent US11976084B2, “Spiropyrrolidine derived antiviral agents” (Enanta Pharmaceuticals, Inc., priority 2020, dated 2024).

The structures appear in SMILES notation.

For this test, the target named is SARS-CoV-2 3CL-protease (Severe acute respiratory syndrome coronavirus 2, UniProt P0DTD1). Nature of the test: SARS-CoV-2 3C-like (3CL) protease fluorescence assay (FRET). The test is classed as biochemical. The conditions noted are these: recombinant SARS-CoV-2 3CL-protease 10 nM, 30 min preincubation at RT, TAMRA-[…]-Dabcyl-OH substrate, run in duplicate. How it is done:
SARS-CoV-2 3C-like (3CL) protease fluorescence assay (FRET): Recombinant SARS-CoV-2 3CL-protease was expressed and purified. TAMRA-[…]-Dabcyl-OH peptide 3CLpro substrate was synthesized. Black, low volume, round-bottom, 384 well microplates were used. In a typical assay, 0.85 μL of test compound was dissolved in DMSO then incubated with SARS-CoV-2 3CL-protease (10 nM) in 10 μL assay buffer (50 mM HEPES [pH 7.5], 1 mM DTT, 0.01% BSA, 0.01% Triton-X 100) for 30 min at RT. Next, 10 μL of 3CL-protease substrate (40 μM) in assay buffer was added and the assays were monitored continuously for 1 h in an Envision multimode plate reader operating in fluorescence kinetics mode with excitation at 540 nm and emission at 580 nm at RT. No compound (DMSO only) and no enzyme controls were routinely included in each plate. All experiments were run in duplicate. Data Analysis: SARS-CoV-2 3CL-protease enzyme activity was measured as initial velocity of the linear phase (RFU/s) and normalized to controlled samples DMSO (100% activity) and no enzyme (0% activity) to determine percent residual activity at various concentrations of test compounds (0-10 μM). Data were fitted to normalized activity (variable slope) versus concentration fit in GraphPad Prism 7 to determine IC50.
Usually IC50 stands for the point on the concentration scale where inhibition reaches its midpoint. Consider `CC1(C)[C@@H]2[C@@H](C(=O)N3C[C@]4(C[C@H]3C#N)C(=O)Nc3ccccc34)N(C(=O)c3cc4c(OC(F)F)cccc4[nH]3)C[C@@H]21` [Example 8], for which the IC50 is 100 to 1000 nM.

Take `N#C[C@@H]1C[C@@]2(CN1C(=O)[C@@H]1[C@H]3CCC[C@H]3CN1C(=O)c1cc3c(F)cc(F)cc3[nH]1)C(=O)Nc1ccccc12` [Example 7]: the IC50 was in the range of 100 to 1000 nM. With `COc1cccc2[nH]c(C(=O)N3CC4(CC4)C[C@H]3C(=O)N3C[C@]4(C[C@H]3C#N)C(=O)Nc3ccccc34)cc12` [Example 2] the figure was 100 to 1000 nM. Under `COc1cccc2[nH]c(C(=O)N3C[C@@H]4CCC[C@@H]4[C@H]3C(=O)N3C[C@]4(C[C@H]3C#N)C(=O)Nc3ccccc34)cc12` [Example 1] stands < 100 nM; under `COc1cccc2[nH]c(C(=O)N3C[C@@]4(C[C@H]3C(=O)N3C[C@]5(C[C@H]3C#N)C(=O)Nc3ccccc35)CC4(F)F)cc12` [Example 4], 100 to 1000 nM; under `COc1cccc2oc(C(=O)N3C[C@H]4[C@@H]([C@H]3C(=O)N3C[C@]5(C[C@H]3C#N)C(=O)Nc3ccccc35)C4(C)C)cc12` [Example 3], < 100 nM. Consider `N#C[C@@H]1C[C@@]2(CN1C(=O)[C@@H]1[C@H]3CCC[C@H]3CN1C(=O)OCc1ccccc1)C(=O)Nc1ccccc12` [Example 6], for which the half-inhibitory concentration (IC50) was 100 to 1000 nM. Under `COc1cccc2[nH]c(C(=O)N3[C@@H]4C[C@@H]4C[C@H]3C(=O)N3C[C@]4(C[C@H]3C#N)C(=O)Nc3ccccc34)cc12` [Example 5] stands < 100 nM.
